According to patent publication US20100204254A1, “Use of statins in the prevention and treatment of radiation injury and other disorders associated with reduced endothelial thrombomodulin” (The University of Arkansas for Medical Sciences, priority 2002, published 2010):

Columns and labels:
[1] = test system: thrombomodulin mRNA (EA.hy926 endothelial cells); assay: Fluorogenic probe RT-PCR, steady-state thrombomodulin mRNA; format: cell-based, human; set-up: concentration dependence of thrombomodulin mRNA: dose or concentration left out as unconfirmed; details: for mRNA (thrombomodulin): FPP 10 μM, squalene 100 μM, GGPP 10 μM, atorvastatin 10 μM, intermediates 30 min before 24-hour atorvastatin, mean ± SEM, method gives % b-actin; for increase in thrombomodulin transcript: 10 mM atorvastatin
Protocol: (§1) Steady-state TM mRNA levels were measured using quantitative real-time RT-PCR (Dr. G. Shipley, Quantitative Genomics Core Laboratory, University of Texas Health Science Center, Houston, Tex.). Human thrombomodulin and b-actin fluorogenic oligonucleotide probes and primers were designed from Genbank sequences, using Primer Express software (Applied Biosystems, Foster City, Calif.) and synthesized by Biosource International (Camarillo, Calif.). Total RNA was extracted using TRIZOL Reagent (Invitrogen, Carlsbad, Calif.) and the RNA samples were treated with RNAse-free DNAse I (Promega, Madison, Wis.). cDNA was synthesized from total RNA in 10 μl total volume, consisting of 6 μl RT master mix (Invitrogen, Carlsbad, Calif.) and a 4-μl RNA sample (30 ng/μl), using a thermocycler (MJR, Waltham, Mass.) for 30 minutes at 50° C. followed by 72° C. for 10 min. Samples were measured in triplicate. An assay-specific sDNA standard spanning a 5-log range and appropriate controls were included. Forty ml of a PCR master mix was pipetted directly onto each well of the cDNA plate utilizing a Biomek 2000 robotic workstation (Beckman, Fullerton, Calif.), and amplified (95° C. for 1 min; 40 cycles of 95° C. for 12 sec, and 60° C. for 1 min) using the 7700 Sequence Detector (Applied Biosystems). The data were normalized to b-actin and presented as molecules of TM transcript/molecules of b-actin transcript×100 (% b-actin).

[2] = test system: thrombomodulin protein (EA.hy926 endothelial cells); assay: Western blotting of thrombomodulin protein in cell lysates; format: cell-based, human; details: for Protein (thrombomodulin): same treatments, untreated control = 100, mean ± SEM
Protocol: (§2) Cells were harvested with trypsin/EDTA and lysed in lysis buffer (10 mM Tris, pH7.4, 150 mM NaCl, 1 mM EDTA, IGPAL CA630, 1 mM PMSF). Protein concentration was measured with the BCA assay (Pierce, Rockford, Ill.). Proteins (20 μg/per lane) were resolved by NuPAGE 4-10% Bis-tris gel electrophoresis (Invitrogen, Carlsbad, Calif.) and electrotransferred onto nitrocellulose membranes. Membranes were probed with primary mouse anti-human thrombomodulin antibody (American Diagnostica), followed by application of a secondary horseradish peroxidase-conjugated (HRP) anti-mouse IgG antibody (American Diagnostica). A mouse anti-human b-actin antibody (either from Sigma or Santa Cruz Biotechnology) was used for protein loading control. HRP signals were detected with an enhanced chemiluminescence (ECL) detection system (Amersham Pharmacia Biotech). Band densities were determined from X-Ray film using SigmaGel software (Jandel Scientific, San Rafael, Calif.).
Total thrombomodulin protein in cell lysates was measured by western blotting. EA.hy926 cells were grown to early (90%+) confluence. The cells were washed with 1×PBS twice and lysed by adding 1 ml lysis buffer (10 mM Tris, pH 7.4; 150 mM NaCl; 1 mM EDTA; 1% NP-40 or IGPAL CA630; 1 mM PMSF), and the lysate was collected into eppendorf tubes. Protein concentrations were measured with the BCA protein assay kit (Pierce). Protein aliquots of each sample were mixed with 4× loading buffer, placed in a boiling water bath for 5 min, and subsequently separated by NuPAGE 4-10% Bis-tris gel electrophoresis (Invitrogen Life Technologies). The proteins were transferred to a nitrocellulose membrane, probed with primary monoclonal mouse anti-human thrombomodulin antibody at 1:1000 and secondary anti-mouse IgG-HRP antibody at 1:2000 (American Diagnostica, Inc.) using standard procedures. The HRP signal was detected using ECL detection reagents (Amersham Life Sciences) and visualized on X-ray film.

[3] = test system: cell surface thrombomodulin (EA.hy926 endothelial cells); assay: Flow cytometry, cell surface thrombomodulin antigen (CD-141); format: cell-based, human; details: for Antigen (cell surface thrombomodulin): same treatments, mean ± SEM, method gives antibody binding sites
Protocol: (§3) Cells were examined for surface antigen expression by flow cytometry, using specific phycoerythrin-conjugated mouse antibodies against human TM (CD-141), a general endothelial cell marker (PECAM [CD-31]), and markers of stimulated endothelial cells (tissue factor [CD-142] and P-selectin [CD-62]) (BD Biosciences, San Diego, Calif.). Cell viability was assessed using 7-amino-actinomycin D (7-AAD). Phycoerythrin-conjugated mouse IgG was used as negative control. A total of 1×10^5 cells were used for each analysis. Cells were harvested, stained with appropriate phycoerythin-conjugated antibodies, fixed in 1% paraformaldehyde, and analysis was performed using a FACSCalibur Flow Cytometer (BD Immunocytometry System, San Jose, Calif.), QuantiBRITE-PE beads (BD Biosciences, San Diego, Calif.), and CELLQuest software. Antigen levels were expressed as antibody binding sites (ABS).

[4] = test system: thrombomodulin activity (EA.hy926 endothelial cells); assay: Protein C activation assay (thrombomodulin activity); format: cell-based, human; set-up: concentration dependence of cell surface thrombomodulin activity: dose or concentration left out as unconfirmed; details: for Activity (thrombomodulin, protein C activation): same treatments, mean ± SEM, method gives OD slope; for influence of enzyme inhibitors on thrombomodulin activity: data not shown; for effect of nitric oxide donors on thrombomodulin activity: 10 mM
Protocol: (§4) TM activity was assessed by measuring protein C activation in early confluent cells grown on 96-well plates. Cells were washed twice with PBS and incubated with […] protein C and 1 nM thrombin (60 min at 37° C., […] total volume) to generate activated protein C. Excess thrombin was quenched with hirudin ([…], 0.2 ATu/ml). The amount of activated protein C generated was measured by monitoring hydrolysis of chromogenic substrate S-2366 at 5-min intervals at 405 nm in a microplate reader (Bio-TEK Instruments, Winooski, Vt.). The results were expressed as mean OD slope values (DOD/Dt).
The functional activity of thrombomodulin was assessed by measuring the ability of the endothelial cells to activate protein C. All samples and reagents were diluted in APC assay diluent (20 mM Tri-HCl, pH7.4, 100 mM NaCl, 2.5 mM CaCl2, 0.5% BSA). Exponentially growing EA.hy 926 endothelial cells were seeded into 96 well plates in triplicate (2×10^4 per well). Cells were allowed to attach and grow overnight, and then washed twice with PBS and incubated for 60 min in 60 μl total volume at 37° C. with 0.5 μM protein C and 1 nM thrombin to generate activated protein C. Excess thrombin was blocked with a superstoichiometric amount of hirudin (20 μl, 0.16 U/μl, 570 nM). Generation of active protein C was determined by using a chromogenic substrate S-2366 and absorbance at 405 nm was measured by using a Vmax kinetic microplate reader.

[5] = test system: endothelial cell thrombomodulin (EA.hy926 endothelial cells); assay: Thrombomodulin expression and activity overall (mRNA, protein, surface antigen, activity); format: cell-based, human; set-up: blocking of atorvastatin-induced thrombomodulin upregulation: dose or concentration left out as unconfirmed; details: for blocking of atorvastatin-induced thrombomodulin upregulation: 30 min pre-incubation
Protocol: as §1, §2, §3, §4
Statins, by inhibiting HMG-CoA reductase, reduce the formation of mevalonate (FIG. 7). […]

[6] = test system: thrombomodulin activity (human intestinal microvascular cells); assay: Protein C activation assay (thrombomodulin activity); format: cell-based
Protocol: as §4

[7] = test system: tissue factor (EA.hy926 endothelial cells); assay: Tissue factor (CD-142) expression after TNF-a exposure; format: cell-based, human; details: atorvastatin pre-treatment, data not shown
Protocol: as §3
TNF-a potently downregulates endothelial thrombomodulin, an effect that is pathophysiologically significant in sepsis and related disorders. Therefore, the effect of atorvastatin on TNF-a-induced downregulation of endothelial cell thrombomodulin was examined. Exposure of EA.hy926 cells to TNF-a (1-20 ng/ml for 24 hours) caused a dose-dependent increase in apoptosis (4-fold at 10 ng/ml) and tissue factor (2.5-fold) and decreased thrombomodulin by 75% (data not shown). […]

[8] = test system: EA.hy926 endothelial cells; assay: Apoptosis after TNF-a exposure; format: cell-based, human; details: atorvastatin pre-treatment, data not shown
Protocol: TNF-a potently downregulates endothelial thrombomodulin, an effect that is pathophysiologically significant in sepsis and related disorders. Therefore, the effect of atorvastatin on TNF-a-induced downregulation of endothelial cell thrombomodulin was examined. Exposure of EA.hy926 cells to TNF-a (1-20 ng/ml for 24 hours) caused a dose-dependent increase in apoptosis (4-fold at 10 ng/ml) and tissue factor (2.5-fold) and decreased thrombomodulin by 75% (data not shown). EA.hy926 cells were pre-treated with atorvastatin (10 μM for 30 min) before exposure to TNF-a (1 or 10 ng/ml, 24 hours).

[9] = 24 hours, atorvastatin 0.1-15 mM
[10] = statin before radiation, normal and irradiated cells, 24 hours after irradiation
[11] = atorvastatin 10 μM for 30 min before TNF-a 1 or 10 ng/ml, 24 hours

For `CC(C)=CCC/C(C)=C/CC/C(C)=C/COP(=O)(O)OP(=O)(O)O` [FPP, farnesyl-pyrophosphate], the “mRNA (thrombomodulin)” value [1] was 8.2 ± 1.9, the “Protein (thrombomodulin)” value [2] was 94 ± 9 and the “Antigen (cell surface thrombomodulin)” value [3] was 74.3 ± 1.1. The “Activity (thrombomodulin, protein C activation)” value [4] was 3.6 ± 0.3 and the “blocking of atorvastatin-induced thrombomodulin upregulation” value (from here on “blocking”) [5] was “only partially blocked”.

For `CC(C)=CCC/C(C)=C/CC/C(C)=C/CC/C(C)=C/COP(=O)(O)OP(=O)(O)O` [GGPP, geranylgeranyl-pyrophosphate], the “mRNA (thrombomodulin)” value [1] was 5.4 ± 0.5, the “Protein (thrombomodulin)” value [2] was 124 ± 11 and the “Antigen (cell surface thrombomodulin)” value [3] was 66.6 ± 5. For the same compound, the “Activity (thrombomodulin, protein C activation)” value [4] was 3.0 ± 0.7 and the “blocking” value [5] was “completely blocked”.

With `COC(=O)[C@H](CC(C)C)NC(=O)c1ccc(NC[C@@H](N)CS)cc1-c1cccc2ccccc12` [GGTI-298] the “influence of enzyme inhibitors on thrombomodulin activity” value [4] was “increasing thrombomodulin activity”.

With `CCCN(CCCN)N(O)N=O` [PAPA-NONOate, 3-(2-Hydroxy-2-nitroso-1-propylhydrazino)-1-propanamine] the “effect of nitric oxide donors on thrombomodulin activity” value [4] was “mimicked the effect of atorvastatin on thrombomodulin activity”.

`CC1(C)N([O])C(c2ccccc2)=[N+]([O-])C1(C)C` [PTIO, 2-Phenyl-4,4,5,5-tetramethylimidazoline-1-oxyl 3-oxide] was tested, and the “effect of NO scavenger on atorvastatin-induced increase in thrombomodulin activity” value ([4]; pre-incubation with 100 mM) was “inhibited the atorvastatin-induced increase in thrombomodulin activity”.

For `Cl.N=c1c[n+](N2CCOCC2)[n-]o1` [SIN-1, 3-Morpholinosydnonimine hydrochloride], the “effect of nitric oxide donors on thrombomodulin activity” value [4] was “mimicked the effect of atorvastatin on thrombomodulin activity”.

For `CC(C)=CCC/C(C)=C/CC/C(C)=C/CC/C=C(\C)CC/C=C(\C)CCC=C(C)C` [Squalene, squalene], the “mRNA (thrombomodulin)” value [1] was 5.9 ± 1.0, the “Protein (thrombomodulin)” value [2] was 147 ± 29 and the “Antigen (cell surface thrombomodulin)” value [3] was 60.9 ± 1.9. The “Activity (thrombomodulin, protein C activation)” value [4] was 2.4 ± 0.6 and the “blocking” value [5] was “ineffective in blocking”.

In the case of `CC(C)c1c(C(=O)Nc2ccccc2)c(-c2ccccc2)c(-c2ccc(F)cc2)n1CC[C@@H](O)C[C@@H](O)CC(=O)O` [atorvastatin], the “increase in thrombomodulin transcript” value ([1]; 8 hours) is reported as 3 fold, the “increase in thrombomodulin transcript” value ([1]; 24 hours) is reported as over 10 fold and the “concentration dependence of thrombomodulin mRNA” value ([1]; 24 hours) is reported as “prominent dose-dependent increase”. For the same compound, the “mRNA (thrombomodulin)” value [1] was 71.7 ± 8.8, the “increase in thrombomodulin protein” value ([2]; 10 mM atorvastatin, 24 hours) was 2- to 3 fold and the “concentration dependence of cellular thrombomodulin protein” value [2, 9] was “prominent dose-dependent increase”. The “thrombomodulin protein, Western blot of cell lysates” value ([2]; irradiated and non-irradiated cells) was “prominent increase in thrombomodulin protein”, the “Protein (thrombomodulin)” value [2] was 403 ± 70 and the “increase in cell surface TM antigen” value ([3]; 10 mM statin, 24 hours) was 2- to 3 fold. For the same compound, the “concentration dependence of cell surface thrombomodulin antigen” value [3, 9] was “prominent dose-dependent increase”, the “Antigen (cell surface thrombomodulin)” value [3] was 146.2 ± 1.9 and the “thrombomodulin antigen expression compared to control endothelial cells” value [3, 10] was “significantly higher”. For the same compound, the “increase in TM activity (protein C activation)” value ([4]; 10 mM statin, 24 hours) was 2- to 3 fold, the “thrombomodulin activity in irradiated endothelial cells” value ([4]; 25 Gy single dose radiation) was “essentially restored normal thrombomodulin activity” and the “concentration dependence of cell surface thrombomodulin activity” value ([4]; 24 hours, different concentrations) was “prominent dose-dependent increase”. For the same compound, the “effect on TNF-a-induced downregulation of thrombomodulin activity” value [4, 11] was “completely counteracted”, the “Activity (thrombomodulin, protein C activation)” value [4] was 4.1 ± 0.3 and the “thrombomodulin activity compared to control endothelial cells” value [4, 10] was “significantly higher”. For the same compound, the “endothelial thrombomodulin activity (protein C activation assay)” value [6] was “significantly affected”, the “levels of thrombomodulin gene expression, protein and surface expression under TNF-a” value [5, 11] was “significantly above those of untreated control cells” and the “effect on TNF-a-induced tissue factor expression” value [7] was “did not affect”. For the same compound, the “effect on TNF-a-induced apoptosis” value [8] was “did not affect”.

For `CC(O)(CCO)CC(=O)O` (centres unmarked) [mevalonate, Mevalonate], the “inhibition of atorvastatin-induced thrombomodulin upregulation” value ([5]; 100 mM or 500 mM mevalonate 30 min prior to 24-hour) was “dose-dependent inhibition” and the “inhibition of atorvastatin-induced thrombomodulin upregulation” value ([5]; higher mevalonate concentration) was “virtually complete inhibition”.

With `C=C(CC[C@]12O[C@H](C(=O)O)[C@@](O)(C(=O)O)[C@](C(=O)O)(O1)[C@H](OC(=O)/C=C/[C@@H](C)C[C@@H](C)CC)[C@H]2O)[C@@H](OC(C)=O)[C@H](C)Cc1ccccc1` [zaragozic acid, zaragozic acid A] the “influence of enzyme inhibitors on thrombomodulin activity” value [4] was “no effect”.
